The results in this text go back to patent US8933113B2 (Merck Sharp & Dohme Corp., priority 2011, dated 2015).

The target of the assay is T1, full-length human Mineralocorticoid Receptor (MR) (Homo sapiens, UniProt P08235).
T1 construct: host or cells: PathHunter CHO-K1 cells
T1 sequence (P08235 1-984): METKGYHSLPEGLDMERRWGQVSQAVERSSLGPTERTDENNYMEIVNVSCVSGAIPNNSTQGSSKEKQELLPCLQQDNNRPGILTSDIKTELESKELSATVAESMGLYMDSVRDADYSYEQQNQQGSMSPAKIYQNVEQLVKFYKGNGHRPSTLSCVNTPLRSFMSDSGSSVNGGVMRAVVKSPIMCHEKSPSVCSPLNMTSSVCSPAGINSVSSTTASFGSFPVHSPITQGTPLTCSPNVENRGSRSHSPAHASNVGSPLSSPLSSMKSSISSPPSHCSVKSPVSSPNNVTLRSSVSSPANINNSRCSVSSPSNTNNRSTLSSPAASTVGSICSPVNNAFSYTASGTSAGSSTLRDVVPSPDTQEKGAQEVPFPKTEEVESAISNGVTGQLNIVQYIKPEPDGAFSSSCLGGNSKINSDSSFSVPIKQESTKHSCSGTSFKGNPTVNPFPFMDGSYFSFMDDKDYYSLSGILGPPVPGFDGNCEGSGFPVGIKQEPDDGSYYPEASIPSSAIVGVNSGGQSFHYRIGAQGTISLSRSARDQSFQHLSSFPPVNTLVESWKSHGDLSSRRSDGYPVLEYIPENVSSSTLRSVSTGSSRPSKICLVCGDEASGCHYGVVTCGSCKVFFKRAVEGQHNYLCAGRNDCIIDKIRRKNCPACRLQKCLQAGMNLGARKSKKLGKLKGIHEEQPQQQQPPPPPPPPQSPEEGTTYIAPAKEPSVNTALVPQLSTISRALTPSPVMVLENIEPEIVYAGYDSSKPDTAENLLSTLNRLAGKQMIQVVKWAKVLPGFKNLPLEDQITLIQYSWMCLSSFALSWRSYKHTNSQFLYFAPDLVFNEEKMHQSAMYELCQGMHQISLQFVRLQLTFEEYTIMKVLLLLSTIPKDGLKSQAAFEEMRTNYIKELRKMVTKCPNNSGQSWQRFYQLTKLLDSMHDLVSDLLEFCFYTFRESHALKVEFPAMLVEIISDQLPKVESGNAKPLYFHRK
Briefly: human MR NH Pro assay (PathHunter Protein:Protein interaction assay), MR antagonist activity. As to conditions: PathHunter CHO-K1 cells overexpressing human MR; aldosterone about 0.3 nM; 6 hours at 37° C.; luminescence; read-out: Primary Assay IP rating (IP = inflection point for a given dose-response titration curve). It counts as cell-based. The essentials: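 PathHunter enzyme-complementation assay in cells of full-length human MR recruitment of a coactivator peptide, run in antagonist mode against aldosterone at about 0.3 to 1.0 nM final. Compounds are in a 10-point, 1:3 series from a 4.4 mM top. Incubation is 6 h at 37° C, then detection reagent for 1 h at RT, with a luminescence read-out.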
`CCC(CCSC)(c1ccc(Cl)cc1)n1ccc2c(NS(C)(=O)=O)cccc21` (stereo not shown) [Compound 166, N-(1-(3-(4-chlorophenyl)-1-(methylthio)pentan-3-yl)-1H-indol-4-yl)methanesulfonamide]: the IC50 was below 0.1 µM.
The same measure for `CCC(CCC(=O)OC)(c1ccc(Cl)cc1)n1ccc2c(NS(C)(=O)=O)cccc21` (stereo not shown) [Compound 167, Methyl 4-(4-chlorophenyl)-4-(4-(methylsulfonamido)-1H-indol-1-yl)hexanoate]: below 0.1 µM.
The same measure for `CCC(CCC(=O)OC)(c1ccc(Cl)cc1)n1ncc2c(NS(C)(=O)=O)cccc21` (stereo not shown) [Compound 168, methyl 4-(4-chlorophenyl)-4-(4-(methylsulfonamido)-1H-indazol-1-yl)hexanoate]: below 0.1 µM; for `CCC(CCCO)(c1ccc(Cl)cc1)n1ccc2c(NS(C)(=O)=O)cccc21` (stereo not shown) [Compound 169, N-(1-(3-(4-chlorophenyl)-6-hydroxyhexan-3-yl)-1H-indol-4-yl)methanesulfonamide]: below 0.1 µM; for `CCC(CCCF)(c1ccc(Cl)cc1)n1ccc2c(NS(C)(=O)=O)cccc21` (stereo not shown) [Compound 170, N-(1-(3-(4-chlorophenyl)-6-fluorohexan-3-yl)-1H-indol-4-yl)methanesulfonamide]: below 0.1 µM.
Take `CCC(/C=C/C(=O)OC)(c1ccc(Cl)cc1)n1ncc2c(NS(C)(=O)=O)cccc21` (stereo not shown) [Compound 171, (E)-methyl 4-(4-chlorophenyl)-4-(4-(methylsulfonamido)-1H-indazol-1-yl)hex-2-enoate]: the IC50 was 0.1 to 0.5 µM.
With `CCC(CCC(C)=O)(c1ccc(Cl)cc1)n1ncc2c(NS(C)(=O)=O)cccc21` (stereo not shown) [Compound 172, N-(1-(3-(4-chlorophenyl)-6-oxoheptan-3-yl)-1H-indazol-4-yl)methanesulfonamide], the IC50 is below 0.1 µM.
Under `CCC(c1ccc(Cl)cc1)(C(O)COC)n1ccc2c(NS(C)(=O)=O)cccc21` (stereo not shown) [Compound 173, N-(1-(3-(4-chlorophenyl)-2-hydroxy-1-methoxypentan-3-yl)-1H-indol-4-yl)methanesulfonamide] stands 0.1 to 0.5 µM; under `CCC(CC)(c1ccc(Cl)cc1)n1ccc2c(NS(C)(=O)=O)cccc21` [Compound 174, N-(1-(3-(4-chlorophenyl)pentan-3-yl)-1H-indol-4-yl)methanesulfonamide], 0.1 to 0.5 µM.
Turning to `C=CC(CC)(c1ccc(Cl)cc1)n1ccc2c(NS(C)(=O)=O)cccc21` (stereo not shown) [Compound 175, N-(1-(3-(4-chlorophenyl)pent-1-en-3-yl)-1H-indol-4-yl)methanesulfonamide], the IC50 was 0.1 to 0.5 µM.
`CCC(CN)(c1ccc(Cl)cc1)n1ccc2c(NS(C)(=O)=O)cccc21` (stereo not shown) [Compound 177, N-(1-(1-amino-2-(4-chlorophenyl)butan-2-yl)-1H-indol-4-yl)methanesulfonamide]: the IC50 fell in the range of 0.1 to 0.5 µM.
The same measure for `CCC(C#N)(c1ccc(Cl)cc1)n1ccc2c(NS(=O)(=O)CC)cccc21` (stereo not shown) [Compound 178, N-(1-(1-(4-chlorophenyl)-1-cyanopropyl)-1H-indol-4-yl)ethanesulfonamide]: 0.1 to 0.5 µM; for “N-(6-fluoro-1-(2-hydroxy-3-(4-(trfluoromethyl)phenyl)pentan-3-yl)-1H-indazol-4-yl)methanesulfonamide [Compound 112]”: below 0.1 µM.
